{"source": "patent US11340239B2", "about": "“BNP (1-32) epitope and antibodies directed against said epitope” (Bio-Rad Europe GMBH, priority 2007, dated 2022)", "key": {"20G7 antibody [1]": {"test_system": "20G7 antibody", "test": "Calibrator standard range in BioPlex 2200 proBNP assay", "format": "binding", "settings": "FIGS. 14 and 15", "experimental": "(§1) The CaliproBNP1 calibrator was diluted to 1 μg/mL, 0.2 μg/mL, 0.1 μg/mL, and 0.02 μg/mL, the CaliproBNP3 calibrator was diluted to 1.6 μg/mL, 0.8 μg/mL, 0.3 μg/mL, 0.06 μg/mL, the CaliproBNP5 and CaliproBNP6 calibrators were diluted to from 100 ng/ml to 0.01 ng/ml in the same 0.1 M succinate buffer, pH 7.6."}, "[2]": {"test": "Accelerated liquid stability, BioPlex 2200 proBNP assay", "experimental": "(§2) The different compounds were tested at different concentrations diluted in 0.1 M succinate buffer, pH 7.6, containing 5% BSA, 2 mM CaCl2, 10% antiproteases cocktail (Sigma reference P2714), 0.1% Proclin, 0.095% NaN3 and 0.1% sodium benzoate.\n(§3) The compounds stability was studied in accelerated condition (room temperature) compared to synthetic BNP(1-32) (Sigma-Aldrich, Etats-Unis, #B-5900) and recombinant proBNP(1-108) (HyTest Ref. 8PRO8) in the following way:\n(§4) Recombinant proBNP(1-108), synthetic BNP(1-32) and calibrator peptides were diluted in 0.1 M succinate buffer, pH 7.6 described above. Each solution was divided in 10 tubes placed at room temperature (20° C.±5° C.). Then one tube of each solution was frozen at J0, J+7, J+14, J+21. At J+21, the different solutions were thawed and assayed by means of the BioPlex™ 2200 proBNP assay described in Example 14 or of the immunoassays described in Examples 8.2 and 10.2.\n(§5) In the BioPlex™ 2200 proBNP assay, the stability of two concentrations of proBNP(1-108), 10 ng/mL and 1 ng/mL, of CaliproBNP1, 2 μg/mL and 0.125 μg/mL and CaliproBNP3, 1 μg/mL and 0.3 μg/mL, were analyzed. In ELISA format, three concentrations of proBNP(1-108) and BNP(1-32), 1.56 ng/mL, 0.78 ng/ml and 0.39 ng/mL, and of CaliproBNP5, […], 31 ng/mL and 15.6 ng/mL, were analysed."}, "[3]": {"test": "Accelerated liquid stability, ELISA format", "experimental": "as §2, §3, §4, §5"}, "20G7 antibody [4]": {"test_system": "20G7 antibody", "test": "Calibrator standard range in ELISA with 20G7 in revelation", "format": "binding", "settings": "FIGS. 16 and 17", "experimental": "as §1"}, "BNP(1-32)": {"biological_target": "T1, BNP(1-32) (Homo sapiens, UniProt P16860)", "T1 construct": "BNP(1-32): synthetic peptide (Sigma-Aldrich, USA, #B-5900); purchased Sigma-Aldrich B-5900; host or cells: chemical synthesis", "T1 sequence (P16860 103-134 limits assumed)": "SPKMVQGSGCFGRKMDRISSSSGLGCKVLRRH", "test": "Immunisation of mice, ELISA of sera", "format": "in vivo", "settings": "Balb/c mice immunised with KLH-coupled peptide", "experimental": "In order to produce monoclonal antibodies, ten mice (Balb/c strain females, 5 weeks old, ref: SIFE055, Charles Rivers, Mass., USA) were immunised using one of the following peptides:\nFor the first injection, an emulsion of 100 μg of KLH-coupled peptide (at a concentration of 1 mg/ml) diluted to ½ in Freund's complete adjuvant (Sigma, #F-5881) was prepared, and 200 μL of said emulsion (i.e. 100 μg of peptide) were injected subcutaneously into each mouse. At intervals of 20 days, three 200 μL booster shots of an emulsion of KLH-coupled peptide (i.e. 100 μg of peptide) and Freund's incomplete adjuvant (Sigma, #F-5506) were injected subcutaneously, then peritoneally, into each mouse.\nAn ELISA test was carried out on a solid support to detect the presence of anti-BNP(1-32) antibodies in a mouse serum sample. […]\nThe microplate was washed three times with 0.1% PBS-T. Each serum from previously immunised mice was subsequently diluted tenfold with 0.1% PBS-T containing 0.1% milk (semi-skimmed), then deposited on the basis of 100 μL per well and left to incubate for two hours at 37° C. […] The enzymatic reaction was stopped by adding 50 μL of sulphuric acid (H2SO4, 4 N) per well, and the OD at 490 nm was subsequently measured in each well."}, "[5]": {"settings": "room temperature, up to J0 + 21"}}, "note": "“Also recorded” adds a separate entry of the source. Positions of bridges follow the written chain, without caps; N, C: chain ends. Non-standard residues stand in square brackets, D forms with d. Residues, ends and D or L forms follow the SMILES beside them. *: point of attachment. Ahx = NCCCCCC(=O)O; Acm = CC(=O)NC*"}
{"compound": "CC[C@H](C)[C@H](NC(=O)[C@H](CCCNC(=N)N)NC(=O)[C@H](CC(=O)O)NC(=O)[C@H](CCSC)NC(=O)[C@H](CCCCN)NC(=O)[C@H](CCCNC(=N)N)NC(=O)CNC(=O)[C@H](Cc1ccccc1)NC(=O)[C@H](CO)NC(=O)CCCCCNC(=O)[C@@H](NC(=O)[C@H](CCSC)NC(=O)[C@H](CCCCN)NC(=O)[C@@H]1CCCN1C(=O)[C@H](CO)NC(=O)[C@H](CCCNC(=N)N)NC(=O)[C@@H]1CCCN1C(=O)[C@H](C)NC(=O)[C@H](CCCNC(=N)N)NC(=O)[C@H](CC(C)C)NC(=O)[C@@H](NC(=O)[C@H](Cc1ccc(O)cc1)NC(C)=O)[C@@H](C)O)C(C)C)C(=O)N[C@@H](CO)C(=O)N[C@@H](CO)C(N)=O", "note": "[CaliproBNP1, Ac-YTLRAPRSPKMV-Ahx-SFGRKMDRISS-CONH2] (Ac-YTLRAPRSPKMV[Ahx]SFGRKMDRISS-NH2)", "values": [{"measurement": "signal in the BioPlex 2200 proBNP assay", "setting": "20G7 antibody [1]", "result": "increasing signal with the compound concentration"}]}
{"compound": "CSCC[C@H](NC(=O)[C@H](CCCCN)NC(=O)[C@H](CCCNC(=N)N)NC(=O)CNC(=O)[C@H](Cc1ccccc1)NC(=O)CCCCCNC(=O)CNC(=O)[C@H](CCC(N)=O)NC(=O)[C@@H](NC(=O)[C@H](CCSC)NC(=O)[C@H](CCCCN)NC(=O)[C@@H]1CCCN1C(=O)[C@H](CO)NC(=O)[C@H](CCCNC(=N)N)NC(=O)[C@@H]1CCCN1C(=O)[C@H](C)NC(=O)[C@H](CCCNC(=N)N)NC(=O)[C@H](CC(C)C)NC(=O)[C@@H](NC(=O)[C@H](Cc1ccc(O)cc1)NC(C)=O)[C@@H](C)O)C(C)C)C(=O)N[C@@H](CC(=O)O)C(=O)N[C@@H](CCCNC(=N)N)C(N)=O", "note": "[CaliproBNP3, Ac-YTLRAPRSPKMVQG-Ahx-FGRKMDR-CONH2] (Ac-YTLRAPRSPKMVQG[Ahx]FGRKMDR-NH2)", "values": [{"measurement": "signal in the BioPlex 2200 proBNP assay", "setting": "20G7 antibody [1]", "result": "increasing signal with the compound concentration"}, {"measurement": "Liquid stability at room temperature in buffer, ratio “signal at J0 + X/signal at J0”", "setting": "[2]; J0 + 7, 0.3 μg/mL", "result": 0.91}, {"measurement": "Liquid stability at room temperature in buffer, ratio “signal at J0 + X/signal at J0”", "setting": "[2]; J0 + 7, 1 μg/mL", "result": 0.92}, {"measurement": "Liquid stability at room temperature in buffer, ratio “signal at J0 + X/signal at J0”", "setting": "[2]; J0 + 14, 0.3 μg/mL", "result": 0.98}, {"measurement": "Liquid stability at room temperature in buffer, ratio “signal at J0 + X/signal at J0”", "setting": "[2]; J0 + 14, 1 μg/mL", "result": 1.02}, {"measurement": "Liquid stability at room temperature in buffer, ratio “signal at J0 + X/signal at J0”", "setting": "[2]; J0 + 21, 0.3 μg/mL", "result": 1.15}, {"measurement": "Liquid stability at room temperature in buffer, ratio “signal at J0 + X/signal at J0”", "setting": "[2]; J0 + 21, 1 μg/mL", "result": 1.06}, {"measurement": "stability compared with recombinant proBNP(1-108)", "setting": "[2]; [5]", "result": "higher stability"}]}
{"compound": "CSCC[C@H](NC(=O)[C@H](CCCCN)NC(=O)[C@H](CCCNC(=N)N)NC(=O)CNC(=O)[C@H](Cc1ccccc1)NC(=O)CCCCCNC(=O)CNC(=O)[C@H](CO)NC(=O)CNC(=O)[C@H](CCC(N)=O)NC(=O)[C@@H](NC(=O)[C@H](CCSC)NC(=O)[C@H](CCCCN)NC(=O)[C@@H]1CCCN1C(=O)[C@H](CO)NC(C)=O)C(C)C)C(=O)N[C@@H](CC(=O)O)C(=O)N[C@@H](CCCNC(=N)N)C(N)=O", "note": "[CaliproBNP5, Ac-SPKMVQGSG-Ahx-FGRKMDR-CONH2] (Ac-SPKMVQGSG[Ahx]FGRKMDR-NH2)", "values": [{"measurement": "Liquid stability at room temperature in buffer, ratio “signal at J0 + X/signal at J0”", "setting": "[3]; J0 + 7, 0.0156 ng/mL", "result": 1.1}, {"measurement": "Liquid stability at room temperature in buffer, ratio “signal at J0 + X/signal at J0”", "setting": "[3]; J0 + 7, 0.031 ng/mL", "result": 1.06}, {"measurement": "Liquid stability at room temperature in buffer, ratio “signal at J0 + X/signal at J0”", "setting": "[3]; J0 + 7, 0.0625 ng/mL", "result": 1.02}, {"measurement": "Liquid stability at room temperature in buffer, ratio “signal at J0 + X/signal at J0”", "setting": "[3]; J0 + 14, 0.0156 ng/mL", "result": 1.01}, {"measurement": "Liquid stability at room temperature in buffer, ratio “signal at J0 + X/signal at J0”", "setting": "[3]; J0 + 14, 0.031 ng/mL", "result": 1.01}, {"measurement": "Liquid stability at room temperature in buffer, ratio “signal at J0 + X/signal at J0”", "setting": "[3]; J0 + 14, 0.0625 ng/mL", "result": 1.02}, {"measurement": "Liquid stability at room temperature in buffer, ratio “signal at J0 + X/signal at J0”", "setting": "[3]; J0 + 21, 0.0156 ng/mL", "result": 1.10}, {"measurement": "Liquid stability at room temperature in buffer, ratio “signal at J0 + X/signal at J0”", "setting": "[3]; J0 + 21, 0.031 ng/mL", "result": 1.06}, {"measurement": "Liquid stability at room temperature in buffer, ratio “signal at J0 + X/signal at J0”", "setting": "[3]; J0 + 21, 0.0625 ng/mL", "result": 1.1}, {"measurement": "stability compared with recombinant proBNP(1-108) and BNP(1-32)", "setting": "[3]; [5]", "result": "higher stability"}, {"measurement": "signal in the BNP(1-32) and the proBNP(1-108) assay", "setting": "20G7 antibody [4]", "result": "signal increasing with the compound concentration"}]}
{"compound": "Ac-TGCFGRKMDRISTSTAIGCKVLCys-CONH2 (Ac-TGCFGRKMDRISTSTAIGCKVLC-NH2; disulfide 3-19; also: KLH-coupled) [SEQ ID NO: 4, immunogen peptide, coupled to KLH]", "values": [{"measurement": "immune response / antiserum reactivity towards BNP(1-32)", "setting": "BNP(1-32)", "result": "very reactive; also recorded: much greater"}]}
{"compound": "Ac-YTLRAPRSPKMV-Ahx-FGRKMDR-Ahx-SGLGC*KVLRRH-COOH (Ac-YTLRAPRSPKMV[Ahx]FGRKMDR[Ahx]SGLGC(Acm)KVLRRH-OH; SMILES CSCC[C@H](NC(=O)[C@H](CCCCN)NC(=O)[C@H](CCCNC(=N)N)NC(=O)CNC(=O)[C@H](Cc1ccccc1)NC(=O)CCCCCNC(=O)[C@@H](NC(=O)[C@H](CCSC)NC(=O)[C@H](CCCCN)NC(=O)[C@@H]1CCCN1C(=O)[C@H](CO)NC(=O)[C@H](CCCNC(=N)N)NC(=O)[C@@H]1CCCN1C(=O)[C@H](C)NC(=O)[C@H](CCCNC(=N)N)NC(=O)[C@H](CC(C)C)NC(=O)[C@@H](NC(=O)[C@H](Cc1ccc(O)cc1)NC(C)=O)[C@@H](C)O)C(C)C)C(=O)N[C@@H](CC(=O)O)C(=O)N[C@@H](CCCNC(=N)N)C(=O)NCCCCCC(=O)N[C@@H](CO)C(=O)NCC(=O)N[C@@H](CC(C)C)C(=O)NCC(=O)N[C@@H](CSCNC(C)=O)C(=O)N[C@@H](CCCCN)C(=O)N[C@H](C(=O)N[C@@H](CC(C)C)C(=O)N[C@@H](CCCNC(=N)N)C(=O)N[C@@H](CCCNC(=N)N)C(=O)N[C@@H](Cc1c[nH]cn1)C(=O)O)C(C)C) [CaliproBNP6, triepitopic calibrator]", "values": [{"measurement": "signal in the BNP(1-32) and the proBNP(1-108) assay", "setting": "20G7 antibody [4]", "result": "signal increasing with the compound concentration"}]}
